The values that follow come from ChEMBL document CHEMBL1151316, “Pyrrolizidine alkaloids from Heliotropium megalanthum” (J Nat Prod, 1998).

The test system of test [1] is Leptinotarsa decemlineata. Briefly: Insecticidal activity against haemolymph dosed Leptinotarsa decemlineata assessed as increase in mortality after 2 days. Format: functional.
The subject of test [2] is Spodoptera littoralis. Briefly: Antifeedant activity in Spodoptera littoralis L6 larvae assessed as reduction of feeding at 5 ug/cm2 by choice test. The class given is functional. On the set-up: scale not given: the % may be the effect or the level left.
Test [3] concerns Leptinotarsa decemlineata. Briefly: Antifeedant activity in Leptinotarsa decemlineata assessed as reduction of feeding by no-choice test. The class given is functional, organism-based.
Test [4] concerns Leptinotarsa decemlineata. Briefly: Antifeedant activity in Leptinotarsa decemlineata assessed as reduction of feeding by choice test. The class given is functional, organism-based.
Test [5] relates to Leptinotarsa decemlineata. Briefly: Antifeedant activity in Leptinotarsa decemlineata assessed as reduction of feeding at 100 ug/cm2 by no-choice test. Format: functional. On the set-up: scale not given: the % may be the effect or the level left.
Test [6] deals with Spodoptera littoralis. Briefly: Insecticidal activity against orally dosed Spodoptera littoralis L6 larvae assessed as relative growth rate after 72 hrs. The class given is functional.
Test [7] has as its system Spodoptera littoralis. Briefly: Antifeedant activity in Spodoptera littoralis L6 larvae assessed as reduction of feeding by choice test. The class given is functional, organism-based.
Test [8] concerns Leptinotarsa decemlineata. Briefly: Antifeedant activity in Leptinotarsa decemlineata assessed as reduction of feeding at 100 ug/cm2 by choice test. The class given is functional. Further details: scale not given: the % may be the effect or the level left.
Test [9] deals with Spodoptera littoralis. Briefly: Antifeedant activity in Spodoptera littoralis L6 larvae assessed as reduction of feeding at 100 ug/cm2 by choice test. On the set-up: scale not given: the % may be the effect or the level left. The class given is functional.
Test [10] has as its system Spodoptera littoralis. Briefly: Insecticidal activity against orally dosed Spodoptera littoralis L6 larvae assessed as relative consumption rate after 72 hrs. The class given is functional.

As to `CC(C)[C@@](O)(C(=O)OC[C@H]1CCN2CC[C@@H](O)[C@@H]12)[C@H](C)O` [MEGALANTHONINE], the Activity in test [1] came out at 10%.

On to `CO[C@@H](C)[C@](O)(C(=O)OCC1=CCN2CC[C@H](O)[C@@H]12)C(C)(C)O` [EUROPINE], for which, in the test on Spodoptera littoralis [2], the Activity came to 67%.

In the case of `CC(=O)O[C@H](C)[C@](O)(C(=O)OC[C@@H]1CCN2CCC[C@@H]12)C(C)C`, the EC50 is 2.92 microg/cm2 in test [3] and 1.79 microg/cm2 in test [4]. For the same molecule, the Activity in [1] was 5%.

In the case of `CC(C)[C@](O)(C(=O)OCC1=CCN2CC[C@@H](O)[C@@H]12)[C@@H](C)O` [LYCOPSAMINE], the Activity was determined as 68.4% in test [5]; 3.32 mg in the test with Spodoptera littoralis [6]; 27.53% in [8]; 61.08% in the test on Spodoptera littoralis [9]; 21.19 mg in the test on Spodoptera littoralis [10]; 12% in test [1]. In addition, the values for the EC50 (in test [3]; in the test with Spodoptera littoralis [7]) were 25.97 microg/cm2 and 31.62 microg/cm2, respectively.
